Source: ChEMBL document CHEMBL1143598, “1-Methyl-3H-pyrazolo[1,2-a]benzo[1,2,3,4]tetrazin-3-ones. Design, synthesis, and biological activity of new antitumor agents” (2005)

Key:
[1] = Concentration required to inhibit cell growth of human tumor cell lines (55 cells giving positive results out of 55 cells); Range = 6.28-4.59; format: functional
[2] = Concentration required to inhibit total cell growth of human tumor cell lines (54 cells giving positive results out of 55 cells); Range = 5.72-4.10; format: functional; details: read-out: pTGI50 (converted)
[3] = Concentration required to inhibit cell death of human tumor cell lines (50 cells giving positive results out of 55 cells); Range = 5.27-4.1; format: functional; details: read-out: pLC50 (the source's name) (converted)
[4] = Concentration required to inhibit cell growth of human tumor cell lines (53 cells giving positive results out of 55 cells); Range is 5.68-4.53; format: functional
[5] = Concentration required to inhibit cell death of human tumor cell lines (40 cells giving positive results out of 55 cells); Range = 4.26-4.06; format: functional; details: read-out: pLC50 (the source's name) (converted)
[6] = Concentration required to inhibit total cell growth of human tumor cell lines (50 cells giving positive results out of 55 cells); Range = 5.23-4.07; format: functional; details: read-out: pTGI50 (converted)
[7] = Concentration required to inhibit cell growth of human tumor cell lines (54 cells giving positive results out of 55 cells); Range = 5.75-4.50; format: functional
[8] = Concentration required to inhibit total cell growth of human tumor cell lines (50 cells giving positive results out of 55 cells); Range = 5.45-4.00; format: functional; details: read-out: pTGI50 (converted)
[9] = Concentration required to inhibit cell death of human tumor cell lines (48 cells giving positive results out of 55 cells); Range = 5.19-4.05; details: read-out: pLC50 (the source's name) (converted)
[10] = Concentration required to inhibit total cell growth of human tumor cell lines (51 cells giving positive results out of 54 cells); Range = 6.14-4.29; format: functional; details: read-out: pTGI50 (converted)
[11] = Concentration required to inhibit cell death of human tumor cell lines (46 cells giving positive results out of 54 cells); Range = 5.36-4.01; format: functional; details: read-out: pLC50 (the source's name) (converted)
[12] = Concentration required to inhibit cell growth of human tumor cell lines (54 cells giving positive results out of 54 cells); Range = 6.76-4.46; format: functional
[13] = Concentration required to inhibit total cell growth of human tumor cell lines (52 cells giving positive results out of 54 cells); Range = 5.53-4.02; format: functional; details: read-out: pTGI50 (converted)
[14] = Concentration required to inhibit cell death of human tumor cell lines (45 cells giving positive results out of 54 cells); Range = 5.25-4.05; format: functional; details: read-out: pLC50 (the source's name) (converted)
[15] = Concentration required to inhibit cell growth of human tumor cell lines (53 cells giving positive results out of 54 cells); Range = 6.05-4.50; format: functional
[16] = Concentration required to inhibit total cell growth of human tumor cell lines (52 cells giving positive results out of 53 cells; Range = 5.53-4.07; format: functional; details: read-out: pTGI50 (converted)
[17] = Concentration required to inhibit cell growth of human tumor cell lines (53 cells giving positive results out of 53 cells); Range = 5.85-4.50; format: functional
[18] = Concentration required to inhibit cell death of human tumor cell lines (49 cells giving positive results out of 53 cells); Range = 5.25-4.11; format: functional; details: read-out: pLC50 (the source's name) (converted)
[19] = Concentration required to inhibit total cell growth of human tumor cell lines (52 cells giving positive results out of 53 cell lines); Range = 5.47-4.34; format: functional; details: read-out: pTGI50 (converted)
[20] = Concentration required to inhibit cell death of human tumor cell lines (50 cells giving positive results out of 53 cells); Range = 5.21-4.01; format: functional; details: read-out: pLC50 (the source's name) (converted)
[21] = Concentration required to inhibit cell growth of human tumor cell lines (51 cells giving positive results out of 53 cells); Range = 5.75-4.67; format: functional

Compound `Cc1cc(=O)n2nnc3cc(Cl)ccc3n12` has a GI50 [1] of 0.525 µM, a GI50 [2] of 1.91 µM and a CC50 [3] of 5.37 µM.

In the case of `Cc1cc(=O)n2nnc3ccccc3n12`, the GI50 [4] is reported as 2.09 µM, the CC50 [5] is reported as 55 µM and the GI50 [6] is reported as 5.89 µM.

`COc1ccc2c(c1)nnn1c(=O)cc(C)n21` gave a GI50 [7] of 1.78 µM, a GI50 [8] of 3.55 µM and a CC50 [9] of 6.46 µM.

Compound `Cc1ccc2nnn3c(=O)cc(C)n3c2c1` has a GI50 [10] of 0.724 µM, a CC50 [11] of 4.37 µM and a GI50 [12] of 0.174 µM.

With `Cc1cc(=O)n2nnc3ccc(Cl)cc3n12` the GI50 [13] was 2.95 µM, the CC50 [14] was 5.62 µM and the GI50 [15] was 0.891 µM.

In the case of `Cc1ccc2c(c1)nnn1c(=O)cc(C)n21`, the GI50 [16] is reported as 2.95 µM, the GI50 [17] is reported as 1.41 µM and the CC50 [18] is reported as 5.62 µM.

`Cc1cc(=O)n2nnc3cc(F)ccc3n12` gave a GI50 [19] of 3.39 µM, a CC50 [20] of 6.17 µM and a GI50 [21] of 1.78 µM.
